The values that follow are results of earlier work, collected in US8529935B2, “Antibacterial hydrogel and use thereof in orthopedics” (Mero S.R.L., priority 2009, dated 2013).

The conditions of this data set: known from the literature.

With `NC[C@H]1O[C@H](O[C@H]2[C@H](O)[C@@H](O[C@H]3O[C@H](CO)[C@@H](O)[C@H](N)[C@H]3O)[C@H](N)C[C@@H]2N)[C@H](N)C[C@@H]1O` [tobramycin], the “minimum inhibiting concentration (MIC)” value is given as “about 1 mg/l”.
As for `CN[C@H](CC(C)C)C(=O)N[C@H]1C(=O)N[C@@H](CC(N)=O)C(=O)N[C@H]2C(=O)N[C@H]3C(=O)N[C@H](C(=O)N[C@H](C(=O)O)c4cc(O)cc(O)c4-c4cc3ccc4O)[C@H](O)c3ccc(c(Cl)c3)Oc3cc2cc(c3O[C@@H]2O[C@H](CO)[C@@H](O)[C@H](O)[C@H]2O[C@H]2C[C@](C)(N)[C@H](O)[C@H](C)O2)Oc2ccc(cc2Cl)[C@H]1O` [vancomycin], the “minimum inhibiting concentration (MIC)” value was 1.56 to 3.12 µg/mL.
